Values after ≈ are worked out from the molar mass of the structure shown. Active and inactive are the calls of the source. The rule behind the calls is not given here.
Key:
EC9706 [1] = assay: Antiproliferative activity against human EC9706 cells after 48 hrs by CCK-8 assay; assay type: functional, cell-based; settings: for IC50: EC9706, 48 h
EC9706 [2] = assay: Antiproliferative activity against human EC9706 cells at >= 600 ug/mL after 48 hrs by CCK-8 assay relative to control; assay type: functional
EC9706 [3] = assay: Antiproliferative activity against human EC9706 cells at 150 ug/mL after 48 hrs by CCK-8 assay; assay type: functional, cell-based

| SMILES | Activity (EC9706 [1]) | IC50 (EC9706 [1]) | Activity (EC9706 [2]) | Activity (EC9706 [3]) |
| --- | --- | --- | --- | --- |
| Nc1cccc2c1CN(C1CCC(=O)NC1=O)C2=O (stereo unspecified) [LENALIDOMIDE] | Dose-dependent effect | 340 µg/mL (≈ 1310 µM) | 100% | Active |
| Cc1ccc(CNc2cccc3c2CN(C2CCC(=O)NC2=O)C3=O)cc1 (stereo unspecified) | Dose-dependent effect | 310 µg/mL (≈ 852 µM) | 100% | Active |
| Cc1ccc(C(=O)Nc2cccc3c2CN(C2CCC(=O)NC2=O)C3=O)cc1 (stereo unspecified) | Dose-dependent effect | 262 µg/mL (≈ 694 µM) | 100% | Active |
| Cc1ccc(S(=O)(=O)Nc2cccc3c2CN(C2CCC(=O)NC2=O)C3=O)cc1 (stereo unspecified) | Dose-dependent effect | 225 µg/mL (≈ 545 µM) | 100% | Active |
